System: KRAS PDC multicell spheroid viability
Assay: Anticancer human tumor 521955-158-R6-J3-PDC patient-derived pancreatic carcinoma cell line growth inhibition [KRAS2]
Conditions: for IC50: curve of first compound; for viability, T/C: stronger effect = lower value
Text: Multicellular complex tumor spheroid response to RAS pathway inhibitors in combination with a targeted agents in patient-derived cell lines with oncogenic KRAS variants from multiple cancer types
A high-throughput screen of multi-cell type tumor spheroids was designed to identify active combinations of targeted small molecules and KRAS pathway inhibitors. Complex spheroids include a stromal component modeled by human endothelial cells (HUVEC) and fibroblasts modeled by human mesenchymal stem cells (MSCs). The concentration ranges selected for each drug and investigational agent were based upon clinically achievable concentrations if the clinical Cmax of the agent was known.
Compounds. The drugs and investigational agents: BI-3406 (NSC825286), BAY-293 (NSC824723), batoprotafib (TNO155; NSC825523), sotorasib (AMG 510; NSC818433), MRTX1257 (NSC819558), elimusertib (BAY 1895344; NSC800525), molibresib (GSK525762; NSC774829), temuterkib (LY3214996; NSC803410), venetoclax (NSC766270), alisertib (NSC759677), olaparib (NSC753686), talazoparib (NSC767125), erdafitinib (NSC781556), ipatasertib (NSC767898), cabozantinib (NSC761068), nintedanib (NSC756659), abemaciclib (NSC768073), docetaxel (NSC628503), trametinib (NSC758246), and sapanisertib (NSC764658) were obtained from the National Cancer Institute (NCI) Developmental Therapeutics Program Chemical Repository. The FDA-approved anticancer drug set is available from the Developmental Therapeutics Program. […] The stock solutions were prepared in dimethyl sulfoxide (DMSO, Sigma-Aldrich, St. Louis, MO, cat. D2650) at 800-fold the tested concentration and stored at -70 degrees C prior to their use. All drugs and investigational agents were tested over a range starting from a high concentration at or near the clinical Cmax and decreasing in half-log increments. If the clinical Cmax for an agent had not been determined, the highest concentration tested was 10 microM.
Cell Culture. All cells were maintained in an incubator at 37 degrees C and 5% CO2 with 95% humidity. The PDC lines were cultured according to standard operating procedures established by the NCI PDMR (https://pdmr.cancer.gov/sops/default.htm). Briefly, all PDCs were thawed and cultured in Matrigel-coated flasks prepared with a working solution of 1X Ham's F-12 nutrient mix, without supplementation (Invitrogen, Waltham, MA, cat. 11765054), 100 U/mL penicillin-streptomycin (Invitrogen, cat. 15140122), and 2.5% Matrigel (Corning Inc., Corning, NY, cat. 354248) for the first three passages. All PDCs were cultured in complete DMEM/F-12 media containing advanced DMEM/F-12 (Invitrogen, cat. 12634028), 4.9% defined fetal bovine serum, heat inactivated (HyClone Laboratories Inc., Logan, UT, cat. SH30070.03HI), 389 ng/mL hydrocortisone (Sigma-Aldrich, cat. H4001), 9.7 ng/mL human EGF recombinant protein (Invitrogen, cat. PHG0313), 23.4 microg/mL adenine (Sigma-Aldrich, cat. A2786), 97.3 U/mL penicillin-streptomycin (Invitrogen, cat. 15140122), 1.9 mM L-glutamine (Invitrogen, cat. 25030081), and 9.7 microM Y-27632 dihydrochloride (Tocris Bioscience, Bristol, United Kingdom, cat. 1254). The PDCs were cultured in complete DMEM/F12 media without 9.7 microM Y-27632 dihydrochloride for at least two passages prior to the screen. The established cell line HOP-62 was cultured in RPMI 1640 medium, HEPES (Invitrogen, cat. 22400105) with 10% defined fetal bovine serum (HyClone Laboratories Inc., cat. SH30070.03) and 2 mM L-glutamine (Invitrogen, cat. 25030081). The pooled donor HUVEC were cultured in endothelial cell growth medium 2 (PromoCell, Heidelberg, Germany, cat. C-22011) and the hMSC were cultured in mesenchymal stem cell growth medium 2 (PromoCell, cat. C-28009). For all experiments, HUVEC and hMSC were used at passages </=5, while the malignant cell lines were used at passages </=15. […]

[1] = second compound 0.1 µM, first compound 0.0316 µM
[2] = second compound 0.1 µM, first compound 0.1 µM
[3] = second compound 0.1 µM, first compound 0.316 µM
[4] = second compound 0.1 µM, first compound 1 µM
[5] = second compound 0.1 µM, first compound 3.16 µM
[6] = second compound 0.1 µM, first compound 10 µM
[7] = second compound 0.316 µM, first compound 0.0316 µM
[8] = second compound 0.316 µM, first compound 0.1 µM
[9] = second compound 0.316 µM, first compound 0.316 µM
[10] = second compound 0.316 µM, first compound 1 µM
[11] = second compound 0.316 µM, first compound 3.16 µM
[12] = second compound 0.316 µM, first compound 10 µM
[13] = second compound 1 µM, first compound 0.0316 µM
[14] = second compound 1 µM, first compound 0.1 µM
[15] = second compound 1 µM, first compound 0.316 µM
[16] = second compound 1 µM, first compound 1 µM
[17] = second compound 1 µM, first compound 3.16 µM
[18] = second compound 1 µM, first compound 10 µM
[19] = second compound 3.16 µM, first compound 0.0316 µM
[20] = second compound 3.16 µM, first compound 0.1 µM
[21] = second compound 3.16 µM, first compound 0.316 µM
[22] = second compound 3.16 µM, first compound 1 µM
[23] = second compound 3.16 µM, first compound 3.16 µM
[24] = second compound 3.16 µM, first compound 10 µM
[25] = second compound 10 µM, first compound 0.0316 µM
[26] = second compound 10 µM, first compound 0.1 µM
[27] = second compound 10 µM, first compound 0.316 µM
[28] = second compound 10 µM, first compound 1 µM
[29] = second compound 10 µM, first compound 3.16 µM
[30] = second compound 10 µM, first compound 10 µM
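Note: drug exposure lasted seven days.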
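Throughout, for viability, T/C: 100% = DMSO vehicle wells and lower means fewer viable cells.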

Row | SMILES | IC50 (second compound 0.1 µM) [µM] | IC50 (second compound 0.316 µM) [µM] | IC50 (second compound 1 µM) [µM] | IC50 (second compound 3.16 µM) [µM] | IC50 (second compound 10 µM) [µM] | viability, T/C [1] [%] | viability, T/C [2] [%] | viability, T/C [3] [%] | viability, T/C [4] [%] | viability, T/C [5] [%] | viability, T/C [6] [%] | viability, T/C [7] [%] | viability, T/C [8] [%] | viability, T/C [9] [%] | viability, T/C [10] [%] | viability, T/C [11] [%] | viability, T/C [12] [%] | viability, T/C [13] [%] | viability, T/C [14] [%] | viability, T/C [15] [%] | further results
1 | COc1cc(Nc2ncc3c(n2)-c2ccc(Cl)cc2C(c2c(F)cccc2OC)=NC3)ccc1C(=O)O + C=CC(=O)N1CCN(c2nc(=O)n(-c3c(C)ccnc3C(C)C)c3nc(-c4c(O)cccc4F)c(F)cc23)C(C)C1 | > 10 | > 10 | > 10 | > 10 | > 10 | 109 | 103 | 102 | 92.6 | 89.1 | 89.8 | 100 | 108 | 99.4 | 79.6 | 82.9 | 82.1 | 93.2 | 103 | 94.7 | viability, T/C [16]: 95.6%; viability, T/C [17]: 86.3%; viability, T/C [18]: 80.5%; viability, T/C [19]: 91.3%; viability, T/C [20]: 89.9%; viability, T/C [21]: 77.4%; viability, T/C [22]: 78.6%; viability, T/C [23]: 84.6%; viability, T/C [24]: 79%; viability, T/C [25]: 71.5%; viability, T/C [26]: 77.9%; viability, T/C [27]: 70.6%; viability, T/C [28]: 62.4%; viability, T/C [29]: 54.2%; viability, T/C [30]: 58.3%
2 | COc1cc2nccc(Oc3ccc(NC(=O)C4(C(=O)Nc5ccc(F)cc5)CC4)cc3)c2cc1OC + C=CC(=O)N1CCN(c2nc(=O)n(-c3c(C)ccnc3C(C)C)c3nc(-c4c(O)cccc4F)c(F)cc23)C(C)C1 | > 10 | > 10 | > 10 | > 10 | > 10 | 91.9 | 96.8 | 96.7 | 98.1 | 119 | 111 | 95.3 | 91.3 | 102 | 99.2 | 115 | 122 | 89.8 | 106 | 96.9 | viability, T/C [16]: 104%; viability, T/C [17]: 119%; viability, T/C [18]: 120%; viability, T/C [19]: 85.5%; viability, T/C [20]: 82.9%; viability, T/C [21]: 87.4%; viability, T/C [22]: 85%; viability, T/C [23]: 99.1%; viability, T/C [24]: 90.8%; viability, T/C [25]: 64.9%; viability, T/C [26]: 66.2%; viability, T/C [27]: 52.2%; viability, T/C [28]: 64.8%; viability, T/C [29]: 53%; viability, T/C [30]: 69.9%
